In US5407660A, “Diagnostic liposomal compositions for enhancing NMR imaging” (Mallinckrodt Medical, Inc., priority 1993, dated 1995):
“Also recorded” adds a separate entry of the source. Like-named read-outs stand apart in the source and are kept apart here.

What was measured:
[1] = format: in vivo, marmosets; settings: for T1 (mean), Blood: 0.3 ml/kg, pre-contrast 507
[2] = Acute intravenous toxicity in mice (Example 4); settings: for Cumulative Mortalities/Number Dosed, Female / Cumulative Mortalities/Number Dosed, Male: 7 days; for LD50: 7-day observation
Method: (§1) In addition, the cardiotoxic effects of single bolus intracoronary arterial injections of 4, 8, 16 or 32 mg MnCl2 were evaluated in the isolated perfused rabbit heart (IPRH).
(§2) The aqueous vehicle for the suspension of negatively charged liposomes consisted of 0.9% NaCl buffered with 0.003 M sodium phosphate, pH 7.4. The lipid concentration was 50 μmol/ml.
A total of 60 mice, 30 males (body weight range of 20-33.5 g) and 30 females (body weight range of 19.1-29.7 g) were used. Fifty of the mice were Swiss ICR, CD-1, obtained from Charles River and ten were Swiss CF-1 obtained from Sasco (Omaha, Neb.).
The four test substances were administered via the lateral tail vein of the mouse at a rate of 1 ml/min with the following doses given.

[3] = system: isolated perfused rabbit heart; experiment: Intracoronary cardiotoxicity in the isolated perfused rabbit heart (IPRH)
Method: as §1, §2
A total of 8 female, New Zealand albino rabbits, with body weights ranging from 1.97-2.96 kg were used in the study.
Rabbits were sacrificed by cervical dislocation, the hearts excised and coronary perfusion was performed at constant pressure via the aortic root using an oxygenated physiological salt solution (Chenoweth's solution) heated to 37° C. A 0.8%, w/v, solution of MnCl2 was heated to 37° C. and intracoronary bolus injections of 0.5, 1.0, 2.0 and 4.0 ml were made in each of the six hearts via a sidearm of the perfusion apparatus. A period of time sufficient to allow the heart to stabilize was allowed between injections. The heart rate (HR), contractile force (CF) and electrocardiogram (ECG) were recorded on a Grass Model 7 polygraph. The maximal percentage changes from pre-injection control values for HR and CF were determined during intervals of […] and 15-30 seconds after injection. The percentage changes from control HR and CF were also recorded at 1, 2, 3 and 4 minutes after injection. The ECG was examined for arrhythmias. When ventricular fibrillation (VF) occurred, no calculations were performed with CF and HR data from that injection.

[4] = Biodistribution of 54MnNa2 EDTA and 54Mn-L in rats (Example 5); format: in vivo, Sprague-Dawley rats
Excerpt: A total of forty Sprague-Dawley rats (20 male, 217-295 g; 20 female, 151-208 g; Charles River) were used. Drinking water was provided ad libitum. The animals, 2 males and 2 females per group, were selected randomly from their cages and were identified with indelible ink numbers at tail bases before test substance administration.
Rats were divided into 10 groups consisting of 2 male and 2 female rats per group. […] Immediately after dosing, rats were housed in individual metabolism cages. Ground Purina Laboratory Chow and water were supplied ad libitum to animals sacrificed at 24 and 48 hr after treatment. Rats from both ^54 NmNa2 EDTA and ^54 Mn-L treatment groups were sacrificed by cervical dislocation at 0.5, 2, 4, 24 and 48 hr after treatment, and the following samples were obtained: injection site, blood, liver, lung, spleen, heart, kidneys, salivary gland (submaxillary), brain, bone with marrow, muscle and fat. Urine samples were obtained from animals sacrificed at all intervals of 2 hr or more after injection and fecal samples were obtained from animals sacrificed at 24 and 48 hr after treatment. […] The entire organ weights were determined for the remaining tissues.
Levels of radioactivity in the biological specimens and aliquots of the injected test substances were determined using a gamma scintillation spectrometer (Model 1085, Nuclear Chicago Corp., Des Plaines, Ill.). Results were calculated on a percent dose/organ (or fluid) and a percent dose/g (or ml) basis using an HP-85 desk top computer (Hewlett Packard, Fort Collins, Colo.).
Kinetic data for the elimination of radioactivity from liver, spleen, kidneys, heart and bone with marrow were curve fitted by the peeling and least-square methods, to mono or bi-exponential equations: [formula]
The half-life (t 1/2) for each elimination phase was calculated as 0.693/Ki. The square of the correlation coefficient (r^2) for each elimination phase was calculated as an indication of variability.

[5] = 32 mg dose, 0-15 s, only 1 heart, all others had VF

O.O.O=C([O-])CN(CC(=O)[O-])[C@@H]1CCCC[C@H]1N(CC(=O)[O-])CC(=O)[O-].[Mn+2].[Na+].[Na+] (relative stereo) [EXAMPLE 1 (E), disodium (trans-1,2-diaminocyclohexane-N,N,N',N'-tetraacetate) manganese dihydrate]
Blood (5 min) and liver T1 values (in words) ([1]; 0.3 ml/kg i.v.): substantially reduced | several other tissue T1's (in words) ([1]; 0.3 ml/kg i.v.): slightly reduced | T1 (mean), Blood ([1]; 5 minute): 375 | T1 (mean), Blood ([1]; 10 minute): 454 | Tissue T1 (mean), Bladder ([1]; 15 min after 0.3 ml/kg): 217 | Tissue T1 (mean), Fat ([1]; 15 min after 0.3 ml/kg): 68 | Tissue T1 (mean), Large Intestine ([1]; 15 min after 0.3 ml/kg): 185 | Tissue T1 (mean), Liver ([1]; 15 min after 0.3 ml/kg): 32 | Tissue T1 (mean), Lung ([1]; 15 min after 0.3 ml/kg): 280 | Tissue T1 (mean), Pancreas ([1]; 15 min after 0.3 ml/kg): 103 | Tissue T1 (mean), Renal Cortex ([1]; 15 min after 0.3 ml/kg): 152 | Tissue T1 (mean), Renal Medulla ([1]; 15 min after 0.3 ml/kg): 209 | Tissue T1 (mean), Skeletal Muscle ([1]; 15 min after 0.3 ml/kg): 206 | Tissue T1 (mean), Small Intestine ([1]; 15 min after 0.3 ml/kg): 107 | Tissue T1 (mean), Spleen ([1]; 15 min after 0.3 ml/kg): 221 | Tissue T1 (mean), Stomach ([1]; 15 min after 0.3 ml/kg): 145 | Tissue T1 (mean), Heart ([1]; 15 min after 0.3 ml/kg (0.118 mmol Mn(II)/kg)): 183 | T1 (mean), Blood ([1]; 15 minute): 511 | Cardiovascular effects ([1]; in vivo, iv): minimal

[Cl][Mn][Cl] [MnCl2, manganese (II) chloride]
Cumulative Mortalities/Number Dosed, Female ([2]; 25 mg/kg i.v.): 1/5 | Cumulative Mortalities/Number Dosed, Male ([2]; 25 mg/kg i.v.): 3/5 | Cumulative Mortalities/Number Dosed, Female ([2]; 31.25 mg/kg i.v.): 4/5 | Cumulative Mortalities/Number Dosed, Male ([2]; 31.25 mg/kg i.v.): 2/5 | Cumulative Mortalities/Number Dosed, Female ([2]; 37.5 mg/kg i.v.): 4/5 | Cumulative Mortalities/Number Dosed, Male ([2]; 37.5 mg/kg i.v.): 4/5 | time of death after dosing was completed ([2]; all deaths with the exception of one (4 days)): one | acute intravenous toxicity (in words) ([2]; intravenous, mice): high degree of acute toxicity | LD50 ([2]; intravenous, mice, 10080 min): 28 mg/kg | LD50 ([2]; intravenous, mice, listed as 1, 10080 min): 28.0 mg/kg | LD50 as Mn(II) ([2]; intravenous, mice, 10080 min): 0.22 mmol/kg of Mn(II) | cause of death ([2]; intravenous, mice, thoracotomy of one mouse): cardiac arrest | Incidence of Ventricular Fibrillation (VF) ([3]; 4 mg dose): 0/6 | Mean % Change in Contractile Force (CF) ([3]; 4 mg dose, 0-15 s): -5% | Mean % Change in Heart Rate (HR) ([3]; 4 mg dose, 0-15 s): -2% | Mean % Change in Contractile Force (CF) ([3]; 4 mg dose, 15-30 s): -28% | Mean % Change in Heart Rate (HR) ([3]; 4 mg dose, 15-30 s): -2% | Mean % Change in Contractile Force (CF) ([3]; 4 mg dose, 1 min): -12% | Mean % Change in Contractile Force (CF) ([3]; 4 mg dose, 2 min): +5% | Mean % Change in Heart Rate (HR) ([3]; 4 mg dose, 2 min): -2% | Incidence of Ventricular Fibrillation (VF) ([3]; 8 mg dose): 0/6 | Mean % Change in Contractile Force (CF) ([3]; 8 mg dose, 0-15 s): -74% | Mean % Change in Heart Rate (HR) ([3]; 8 mg dose, 0-15 s): -8% | Mean % Change in Contractile Force (CF) ([3]; 8 mg dose, 15-30 s): -38% | Mean % Change in Heart Rate (HR) ([3]; 8 mg dose, 15-30 s): -7% | Mean % Change in Contractile Force (CF) ([3]; 8 mg dose, 1 min): -17% | Mean % Change in Heart Rate (HR) ([3]; 8 mg dose, 1 min): -7% | Mean % Change in Contractile Force (CF) ([3]; 8 mg dose, 2 min): +2% | Mean % Change in Heart Rate (HR) ([3]; 8 mg dose, 2 min): -6% | Incidence of Ventricular Fibrillation (VF) ([3]; 16 mg dose): 2/6 | Mean % Change in Contractile Force (CF) ([3]; 16 mg dose, 0-15 s): -92% | Mean % Change in Heart Rate (HR) ([3]; 16 mg dose, 0-15 s): -31% | Mean % Change in Contractile Force (CF) ([3]; 16 mg dose, 15-30 s): -61% | Mean % Change in Heart Rate (HR) ([3]; 16 mg dose, 15-30 s): -14% | Mean % Change in Contractile Force (CF) ([3]; 16 mg dose, 1 min): -37% | Mean % Change in Heart Rate (HR) ([3]; 16 mg dose, 1 min): -14% | Mean % Change in Contractile Force (CF) ([3]; 16 mg dose, 2 min): -1% | Mean % Change in Heart Rate (HR) ([3]; 16 mg dose, 2 min): -11% | premature ventricular contractions in hearts which did not fibrillate ([3]; 16 mg dose, during or immediately after injection): two of the four hearts | Incidence of Ventricular Fibrillation (VF) ([3]; 32 mg dose): 5/6 | conduction block in the single heart which failed to fibrillate ([3]; 32 mg dose): complete A-V conduction block with ventricular standstill | Mean % Change in Contractile Force (CF) [3, 5]: -100% | Mean % Change in Heart Rate (HR) [3, 5]: -100% | Mean % Change in Contractile Force (CF) ([3]; 32 mg dose, 15-30 s): -64% | Mean % Change in Heart Rate (HR) ([3]; 32 mg dose, 15-30 s): -17% | Mean % Change in Contractile Force (CF) ([3]; 32 mg dose, 1 min): -33% | Mean % Change in Heart Rate (HR) ([3]; 32 mg dose, 1 min): -17% | Mean % Change in Contractile Force (CF) ([3]; 32 mg dose, 2 min): +2% | Mean % Change in Heart Rate (HR) ([3]; 32 mg dose, 2 min): -14% | arrhythmias (in words) ([3]; 4-32 mg): dose-related incidence of arrhythmias; also recorded: conduction delays and ventricular arrhythmias | effect on CF and HR (in words) ([3]; 4-32 mg, maximal within 0-15 seconds): Dose-related decreases in CF and HR; also recorded: dose-related depression of contractility and heart rate | PR and QRS intervals ([3]; ECG, 4-32 mg): dose-related increases in PR and QRS intervals

O=C([O-])CN(CCN(CC(=O)[O-])CC(=O)[O-])CC(=O)[O-].[54Mn+2].[Na+].[Na+] [^54 MnNa2 EDTA, disodium (ethylenediaminetetraacetato) manganese (II)]
distribution, percent dose/organ (in words) ([4]; 0.5-48 hr): distributed primarily to the liver, bone with marrow, muscle and kidneys | bone and marrow half-life ([4]; bone and marrow): > 100 h | heart half-life, monophasic elimination ([4]; heart): approximately 8 hr | blood disappearance/clearance (in words) ([4]; intravenous): rapidly cleared from the blood | share associated with rapid first phase renal elimination ([4]; kidney): Approximately 81% | renal clearance t 1/2, initial rapid phase ([4]; kidney, biphasic): < 1 h | renal clearance t 1/2, secondary slow phase ([4]; kidney, biphasic): > 17 h | share associated with rapid first phase hepatic elimination ([4]; liver): Approximately 92% | hepatic clearance t 1/2, initial rapid phase ([4]; liver, biphasic): < 1 h | hepatic clearance t 1/2, secondary slow phase ([4]; liver, biphasic): > 17 h | spleen half-life, monophasic elimination ([4]; spleen): ~ 2 hr | dose eliminated in the urine ([4]; within 2 hr after treatment): > 50%
